# Experimental data taken from paper PMC6409486 (Stem Cell Reports, 2019).
# “Also recorded” adds a separate entry of the source. Read-outs that look alike come from different tables or passages of the source.
# Assays:
# CDK9 [1] = molecular target: T1, CDK9 (Homo sapiens, UniProt P50750); assay: CDK9 LANCE Assay; conditions: biochemical profiling
# CDK7 [2] = molecular target: T2, CDK7 (Homo sapiens, UniProt P50613); assay: CDK7 LANCE Assay; conditions: biochemical profiling
# human iPSC-derived MNs [3] = assay: TUBB3 immunostaining and neurite segmentation of human MNs with DetaNO; type: cell-based
# mouse ESC-derived MNs [4] = assay: MN survival with DetaNO; type: cell-based
# mouse ESC-derived MNs [5] = assay: Compounds on unstressed MNs; type: cell-based; conditions: for toxicity to unstressed MNs: absence of any stress; for survival of unstressed MNs: unstressed conditions
# iPSC-derived MNs = assay: Label-free quantitative phosphoproteomics of DetaNO-treated MNs; type: cell-based, human
# mouse ESC-derived MNs [6] = assay: MN survival with activated BV2 cells; type: cell-based
# human iPSC-derived MNs [7] = assay: CellTiter-Glo assay, human MNs stressed with 400 μM DetaNO; type: cell-based
# GSK3β = GSK3β (Homo sapiens, UniProt P49841); conditions: 1 μM; ref Chen et al., 2016; cited from earlier work
# [8] = tested on: FACS-purified mouse ESC-derived MNs; assay: FACS-purified MNs cultured with DetaNO in the absence of astrocytes; type: cell-based
# mouse ESC-derived MNs [9] = assay: CHIR rescue of CP681301-mediated cytotoxicity; type: cell-based; conditions: 5 μM CP681301, increasing concentrations of CHIR (1.25-2.5 µM)
# CDK9 [10] = molecular target: T1, CDK9; conditions: 10 μM; ref Fabian et al., 2005; http://lincs.hms.harvard.edu/db/datasets/20044/; cited from earlier work
# CDK7 [11] = molecular target: T2, CDK7; conditions: 10 μM; ref Fabian et al., 2005; http://lincs.hms.harvard.edu/db/datasets/20044/; cited from earlier work
# T2 sequence (P50613 whole entry, species assumed): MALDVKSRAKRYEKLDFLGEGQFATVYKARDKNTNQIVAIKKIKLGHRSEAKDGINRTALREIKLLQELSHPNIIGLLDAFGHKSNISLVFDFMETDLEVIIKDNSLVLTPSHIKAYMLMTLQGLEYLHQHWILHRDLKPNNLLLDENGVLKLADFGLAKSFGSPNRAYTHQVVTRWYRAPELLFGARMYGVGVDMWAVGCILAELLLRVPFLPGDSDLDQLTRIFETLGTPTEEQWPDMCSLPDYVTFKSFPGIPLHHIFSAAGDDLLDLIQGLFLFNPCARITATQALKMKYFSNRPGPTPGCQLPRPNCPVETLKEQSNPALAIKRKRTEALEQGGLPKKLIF
# T2 sequence (P51946 whole entry partner, species assumed): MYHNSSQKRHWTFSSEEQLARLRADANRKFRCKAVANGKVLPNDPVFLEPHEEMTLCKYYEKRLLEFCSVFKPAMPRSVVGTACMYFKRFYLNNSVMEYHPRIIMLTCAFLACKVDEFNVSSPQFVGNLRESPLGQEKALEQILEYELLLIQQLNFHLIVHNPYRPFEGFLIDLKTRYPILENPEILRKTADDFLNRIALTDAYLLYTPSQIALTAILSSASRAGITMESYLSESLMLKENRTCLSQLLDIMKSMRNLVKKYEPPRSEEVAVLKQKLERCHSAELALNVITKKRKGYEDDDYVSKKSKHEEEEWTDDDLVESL
# T2 sequence (P51948 whole entry partner, species assumed): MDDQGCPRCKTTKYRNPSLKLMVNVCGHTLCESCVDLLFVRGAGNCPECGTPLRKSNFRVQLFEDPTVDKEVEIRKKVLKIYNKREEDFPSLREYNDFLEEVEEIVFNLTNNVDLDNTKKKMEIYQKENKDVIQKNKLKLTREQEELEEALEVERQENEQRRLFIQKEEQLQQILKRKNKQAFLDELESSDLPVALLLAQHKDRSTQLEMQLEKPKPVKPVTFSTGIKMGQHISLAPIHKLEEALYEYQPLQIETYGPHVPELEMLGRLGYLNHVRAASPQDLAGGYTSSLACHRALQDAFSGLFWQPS
# T1 sequence (P50750 whole entry, species assumed): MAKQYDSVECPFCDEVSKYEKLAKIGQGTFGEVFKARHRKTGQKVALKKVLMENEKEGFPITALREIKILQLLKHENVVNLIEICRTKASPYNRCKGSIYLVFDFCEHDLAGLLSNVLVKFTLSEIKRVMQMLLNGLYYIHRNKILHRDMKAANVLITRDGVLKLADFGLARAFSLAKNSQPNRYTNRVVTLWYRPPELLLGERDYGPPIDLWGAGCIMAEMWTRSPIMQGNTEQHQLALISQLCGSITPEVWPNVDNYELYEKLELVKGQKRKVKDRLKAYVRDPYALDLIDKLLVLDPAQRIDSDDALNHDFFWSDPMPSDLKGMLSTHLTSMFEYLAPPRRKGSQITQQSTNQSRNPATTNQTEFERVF
# T1 sequence (O60563 whole entry partner, species assumed): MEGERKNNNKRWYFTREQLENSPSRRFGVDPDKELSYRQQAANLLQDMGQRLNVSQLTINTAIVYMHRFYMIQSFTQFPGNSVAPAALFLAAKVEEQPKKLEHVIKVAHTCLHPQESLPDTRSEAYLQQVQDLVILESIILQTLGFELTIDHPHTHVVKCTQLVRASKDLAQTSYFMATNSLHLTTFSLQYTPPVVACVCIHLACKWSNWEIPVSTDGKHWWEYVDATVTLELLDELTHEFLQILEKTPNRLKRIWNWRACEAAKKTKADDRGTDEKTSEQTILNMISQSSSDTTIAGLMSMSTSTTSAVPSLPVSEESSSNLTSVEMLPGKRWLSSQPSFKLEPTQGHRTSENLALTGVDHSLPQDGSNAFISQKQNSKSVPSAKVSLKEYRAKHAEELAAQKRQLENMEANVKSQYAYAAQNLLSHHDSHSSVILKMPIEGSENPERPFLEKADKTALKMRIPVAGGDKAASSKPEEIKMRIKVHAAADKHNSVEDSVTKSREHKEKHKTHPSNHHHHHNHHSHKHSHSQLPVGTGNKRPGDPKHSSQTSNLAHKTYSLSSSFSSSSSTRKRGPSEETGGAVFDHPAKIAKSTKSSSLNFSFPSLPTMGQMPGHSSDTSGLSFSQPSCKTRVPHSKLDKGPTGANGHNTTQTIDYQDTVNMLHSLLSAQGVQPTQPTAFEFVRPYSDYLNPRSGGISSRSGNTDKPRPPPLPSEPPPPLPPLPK
# Chain of GSK3β (P49841 whole entry, species assumed): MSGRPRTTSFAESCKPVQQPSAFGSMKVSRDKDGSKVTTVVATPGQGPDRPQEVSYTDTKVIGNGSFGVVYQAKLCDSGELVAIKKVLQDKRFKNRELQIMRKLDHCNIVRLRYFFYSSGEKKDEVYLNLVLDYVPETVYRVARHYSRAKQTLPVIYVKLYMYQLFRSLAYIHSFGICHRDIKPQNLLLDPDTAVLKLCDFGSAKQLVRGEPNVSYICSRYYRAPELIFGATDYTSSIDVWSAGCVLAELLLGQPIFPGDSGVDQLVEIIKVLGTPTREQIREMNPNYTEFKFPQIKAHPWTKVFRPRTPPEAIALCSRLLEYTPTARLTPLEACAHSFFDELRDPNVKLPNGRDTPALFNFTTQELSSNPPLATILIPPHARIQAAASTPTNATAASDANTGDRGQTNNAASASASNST
SMILES,protection of MNs from DetaNO-induced degeneration (words) (mouse ESC-derived MNs [4]),toxicity to unstressed MNs (mouse ESC-derived MNs [5]),protection of MNs from activated BV2-induced degeneration (words) (mouse ESC-derived MNs [6]),other results
O=C1Cc2c([nH]c3ccc(Br)cc23)-c2ccccc2N1 [kenpaullone],robustly protected,no visible toxicity,–,"inhibition of CDK9 (CDK9 [1]): does not inhibit; inhibition of CDK7 (CDK7 [2]): does not inhibit; protection of human MN neurites from DetaNO, TUBB3 neurite segments (human iPSC-derived MNs [3]; 400 μM DetaNO, 0.625 μM kenpaullone, two iPSC lines): robustly protected; survival of unstressed MNs (mouse ESC-derived MNs [5]): small increase in MN survival; phosphopeptide levels of MAPT, MAP1B and MAP2 (iPSC-derived MNs; DetaNO-treated iPSC-derived MNs): consistently decreased; phosphorylation levels of CLASP1, CLASP2 and DPYSL2 (iPSC-derived MNs; compared with MNs cultured with DetaNO): reduced"
CCc1cnn2c(NCc3ccc[n+]([O-])c3)cc(N3CCCC[C@H]3CCO)nc12 [dinaciclib],robustly protected,induced toxicity,robustly protected,"protection of MNs from DetaNO-induced degeneration (words) (mouse ESC-derived MNs [4]; listed as Dinaciclib): rescued; protection of MNs from activated BV2-induced degeneration (words) (mouse ESC-derived MNs [6]; listed as Dinaciclib): rescued; rescue of human MNs from DetaNO stress, CellTiter-Glo ATP levels (human iPSC-derived MNs [7]): potently rescued; reduction of the activity of GSK3β (GSK3β): about 70%; protection of FACS-purified MNs from DetaNO-induced degeneration [8]: protected"
"CC1CCN=C(N)S1 (centres unmarked) [AMT, 2-amino-5,6-dihydro-6-methyl-4H-1,3-thiazine]",–,–,rescued,–
NS(=O)(=O)c1ccc(Nc2nc(OCC3CCCCC3)c3[nH]cnc3n2)cc1 [NU6102],not protective,–,–,–
Cc1c[nH]c(-c2cnc(NCCNc3ccc(C#N)cn3)nc2-c2ccc(Cl)cc2Cl)n1 [CHIR],failed to protect,did not show any cytotoxic effects,–,"survival of unstressed MNs (mouse ESC-derived MNs [5]): small, but significant increase; rescue of MNs from CP681301-mediated cytotoxicity (mouse ESC-derived MNs [9]): rescued"
COc1ccc(F)c(F)c1C(=O)c1cnc(NC2CCN(S(C)(=O)=O)CC2)nc1N [R-547],robustly protected; also recorded: rescued,–,robustly protected; also recorded: rescued,–
CC(=O)c1c(C)c2cnc(Nc3ccc(N4CCNCC4)cn3)nc2n(C2CCCC2)c1=O [PD332991],not neuroprotective,–,–,ATP binding to CDK9 (CDK9 [10]): significantly reduces ATP binding; ATP binding to CDK7 (CDK7 [11]): significantly reduces ATP binding
"NCCN(CCN)/[N+]([O-])=N/O [DetaNO, diethylenetriamine/NO adduct]",–,–,–,"number of TUBB3-positive punctae (human iPSC-derived MNs [3]; 400 μM DetaNO for 24 h): large increase; area of TUBB3-positive neurite segments (human iPSC-derived MNs [3]; iPSC-derived MNs, DetaNO): decreased"
CN1CC[C@H](c2c(O)cc(O)c3c(=O)cc(-c4ccccc4Cl)oc23)[C@H](O)C1 [flavopiridol],robustly protected; also recorded: rescued,induced toxicity,robustly protected; also recorded: rescued,–
CC(C)(C)c1cnc(CSc2cnc(NC(=O)C3CCNCC3)s2)o1 [BMS-387032],robustly protected; also recorded: rescued,induced toxicity,robustly protected; also recorded: rescued,–
